Results: US20240148745A1, “COMPOUNDS FOR USE IN PROGRESSIVE MULTIPLE SCLEROSIS” (FONDAZIONE CENTRO SAN RAFFAELE, priority 2021, published 2024)

Columns and labels:
[1] = test system: primary murine spinal cord culture; assay: Myelinating cell cultures from primary murine spinal cord; type: cell-based, mouse; settings: 1 μM
Protocol: Single cell suspensions are prepared from spinal cord of mouse embryos (E13) (adapted from Thomson, 2008) and 1.5×10^5 cells/well were plated into 96 well plates. Over time, these cultures mature and form axons, which later myelinate. Using spinal cord tissue facilitates the quantification of mature MBP+ oligodendrocytes and newly formed myelin by in-house high-content imaging system (Operetta High Content Imaging System, Perkin Elmer) with a 20× lens. From each well, 25 fields in a 5×5 matrix were scanned. Thirty-two “Front Runners” compounds were tested in replicates of five at 1 μM/DMSO, while T3, benzotropine and clemastine were used as positive controls, DMSO as negative/solvent control. Two experimental paradigms were applied: “Early treatment”: exposure to experimental agent from DIV7 to DIV14; “Late treatment”: exposure to experimental agent from DIV14-DIV21. On DIV21, cultures were fixed and stained (myelin: MBP, axons: NF200; nuclei: Hoechst). Imaging data were analysed using CellProfiler and in-house generated analysis pipeline.
Thirty-two “Front Runners” compounds were tested in replicates of five at 1 μM/DMSO, while T3, benztropine and clemastine were used as positive controls, DMSO as negative/solvent control. Two experimental paradigms were applied: “Early treatment”: exposure to experimental agent from DIV7 to DIV14; “Late treatment”: exposure to experimental agent from DIV14-DIV21. […] In “Late treatment” paradigm in myelin area evaluation were identified Vanoxerine, Roxadustat, Tamibarotene, Drinabant, Progesterone, Saracatinib. In quantification of myelinated axons were identified Vanoxerine, Drinabant, Roxadustat.

[2] = test system: rat oligodendrocyte progenitor CG4 line; assay: Differentiation assay on rat oligodendrocyte progenitor CG4 line (HCS, mCherry+); type: cell-based; settings: secondary screen of 49 selected compounds, 1 μM, 5 days
Excerpt: Primary validation on CG4 line toxicity and differentiation. An innovative OPC line was developed for fast and reliable high content screening (HCS) of small compounds inducing oligodendrocyte differentiation. The line was genetically engineered by lentiviral transduction of rat CG4 cells (PubMed=1613821; DOI=10.1002/jnr.490310125; Louis J. C., Magal E., Muir D., Manthorpe M., Varon S.; CG-4, a new bipotential glial cell line from rat brain, is capable of differentiating in vitro into either mature oligodendrocytes or type-2 astrocytes. J. Neurosci. Res. 31:193-204(1992) to express mCherry fluorescent reporter (Evercooren, Anne & Avellana-Adalid, V. & Vitry, Sandrine & Nait-Oumesmar, Brahim & Lachapelle, Francois. (1997). Expansion of Oligodendrocyte Progenitors for Myelin Repair. 10.1007/978-1-4615-5949-8_21) in mature oligodendrocytes only, and EGFP at all stage of the oligodendroglial lineage: both the generation of mature oligodendrocytes (wmNl-mCherry) and the morphological changes associated with differentiation (CMV-EGFP) can be therefore monitored in a single assay. mCherry expression occurred only in O4+/GalC+ differentiated oligodendrocytes and GFP was ubiquitously expressed at all developmental stages. The line so obtained was validated using compounds with well-established effects on oligodendrocyte differentiation (cAMP and T3). Cell-based assay was standardized on the HCS platform (ArrayScanXTI, Brain and Spine Institute (Paris), validating the pro-differentiation effects of clemastine^27 and 9cis-retinoic acid.^28 For HCS validation of 274 compounds identified through in silico screen, double-fluo CG4 line cells were plated in 96 well-plates, 6500 cells/cm^2 and left for 24 h in proliferation. The other day, compounds were added (1 μM) for next 5 days of differentiation, with ⅔ medium changed after 3 days. 9-cis Retinoic Acid (9cis-RA; […]) served as a positive control, negative controls were basal (N1) medium and vehicle (basal+0.1% DMSO). Each compound was tested in triplicate and were imaged with ArrayScanXTI system (35 fields/well) after 5 days of differentiation.
FIG. 4 provides a schematic representation of High Content Screening (HCS) validation of the 274 compounds identified through in silico screening using CG4 line. […] In addition, the whole short list of 160 non-toxic compounds were screened using the CG4 high content phenotypic assay to further confirm the data from primary screening and to potentially select additional compounds with pro-myelinating activities. From this screening of the short list, 49 hit compounds were identified that increase differentiation either of CG4 cells or primary OPCs (FIG. 6).

[3] = test system: human iPS-derived neuroprecursors; assay: Differentiation of human iPS-derived neuroprecursors into MBP+ oligodendrocytes; type: cell-based; settings: 1 μM in minimal medium, p<0.05
Excerpt: NPC bearing a doxycycline inducible polycistronic construct containing SOX10, OLIG2 and NKX6.2^29 in a human safe harbor (passages 10 to 25) were singularized on day −3 by treatment with Accutase and plated on Matrigel-coated 12-well plates at a density of 100.000 cells per well in N2B27-medium containing equal parts of neurobasal (Invitrogen) and DMEM-F12 medium (Invitrogen) with 1:100 B27 supplement lacking vitamin A (Invitrogen), 1:200 N2 supplement (Invitrogen), 1% penicillin/streptomycin/glutamine (PSG), 3 μM CHIR99021 (Axon Medchem), 150 μM ascorbic acid and 0.5 μM SAG. The next day medium was changed to N2B27-medium containing 1 μg/ml doxycycline. On DO medium was changed to glial-induction medium (GIM) consisting of DMEM-F12 with 1:100 B27 supplement lacking vitamin A, 1:200 N2 supplement, 1% PSG, 1 μM SAG, 10 ng/mL NT3 (Peprotech), 10 ng/mL IGF-I (Peprotech), 200 μM AA (Sigma), 1:1000 Trace Elements B (Corning). For full medium conditions 10 ng/ml T3 was added. On Day 2 medium was changed to glial-differentiation medium (GDM) comprising DMEM-F12 with 1:100 B27 supplement lacking vitamin A, 1:200 N2 supplement, 1% PSG, 100 μM dbCAMP (Sigma), 100 μM AA, 1:1000. For full medium conditions 60 ng/mL T3, Trace Elements B 10 ng/mL, IGF-I, 10 ng/mL and NT3 were added to the culture. GDM was changed every other day. On day 7 cells were detached by treatment with Accutase and re-plated on laminin coated 48-well plates at densities of 10.000-12.000 cells per well. After 24 h cells were treated in minimal medium with either vehicle alone [0.01% (vol/vol) DMSO] as a negative control, 60 ng/mL T3 as a positive control, or with a drug candidate dissolved in DMSO. Medium was changed every other day. On D16 doxycycline was removed from the medium. Cells were fixed on D21 and analyzed via immunocytochemistry.
Immunocytochemistry. Cells were initially fixed with 4% PFA treatment for 20 min, RT. Following three washes with PBS cells were incubated with blocking solution containing 5% normal goat serum (NGS) and 5% FCS (fetal calf serum) in PBS for 30 min at RT to prevent unspecific binding of the antibodies. To detect intracellular antigens cells were permeabilized by adding 0.5% Triton X-100 to the Blocking-solution. Cells treated with Triton X-100 were washed three times with PBS each time for 5 min at RT. Primary antibodies (rat anti-MBP,1:50, Abcam, AB7349) were applied overnight, 4° C., in blocking solution. The next day cells were washed 3 times with PBS at RT, and afterwards incubated with secondary antibodies (AF488 Alexa Fluor anti-rat (goat), 1:500, Jackson/Dianova, #112-545-167) diluted in PBS for 1 h at RT. Secondary antibodies were subsequently removed by washing 3 times with PBS. Afterwards PBS containing a Dapi staining for nuclei was added for 5 minutes and afterwards washed off with PBS. Cells were kept at 4° C. until imaging.
Imaging and evaluation. From each condition (triplicates) 20-30 pictures were taken randomly chosen by the Dapi-signal. Cell numbers were determined by using an ImageJ Macro to count the nuclei whereas MBP positive cells were subsequently counted manually in black and white images.
The effect on oligodendroglial differentiation of 32 compounds (“Front runners”) was tested. Induced pluripotent stem cells in which the transcription factors SOX10, OLIG2, NKX6.2 were inserted in a doxycycline inducible manner into a human safe harbor were differentiated into neural stem cells. Differentiation into oligodendrocytes was induced by addition of doxycycline. Cells were cultured either in a minimal medium (MM) (negative control) or in MM with the different compounds at a concentration of 1 μM. Addition of T3 to the minimal medium served as a positive control.

rat primary OPC cultures = assay: Differentiation of rat primary OPC into MBP+ OLs; type: cell-based; settings: 96 h, 4 days of differentiation, read-out: MBP+ differentiation (MBP+/SOX10+ OLs plus compounds / plus basal medium)
Protocol: Secondary validation on primary rat OPC differentiation. Re-validation of the best performing compounds promoting OPC differentiation (fold change >1.5) was performed on primary rat OPC cultures in 96 well-plate run in triplicates by triple immunolabeling for CNPase, MBP and SOX10 as a readout. Compounds at […] were added for 4 days of differentiation and then cell cultures were imaged with ArrayScanXTI platform, number of MBP+OLs were quantified by semi-automated software. Basal medium served as a negative control, 9 cis-RA ([…]) was a positive control.
Re-validation of the 49 compounds selected from the short list (160 compounds) using rat primary OPC cultures (compounds tested in triplicates in 3 independent experiments. The secondary validation screen of these compounds performed on rat primary OPC cultures selected 17 best lead compounds with a pro-differentiation activity (MBP+/SOX10+OLs plus compounds/MBP+SOX10+ plus basal medium fold increase) induced a strong differentiation into MBP+OLs (fold increase >1.6). Results are shown in FIG. 7.

SMILES | myelin area ([1]; Early treatment DIV7 to DIV14) | quantification of myelinated axons ([1]; Early treatment DIV7 to DIV14) | myelin area ([1]; Late treatment DIV14-DIV21) | quantification of myelinated axons ([1]; Late treatment DIV14-DIV21) | CG4 differentiation compared with 9cis-RA positive control [2] | differentiation into MBP+ oligodendrocytes [3] | differentiation into MBP+ oligodendrocytes ([3]; listed as Drinibant) | fold induction at 1 µM (rat primary OPC cultures)
Fc1ccc(C(OCCN2CCN(CCCc3ccccc3)CC2)c2ccc(F)cc2)cc1 [Vanoxerine] | identified | identified | identified | identified | promoting differentiation significantly higher than 9cis-RA positive control | – | – | –
CS(=O)(=O)N(c1cc(F)cc(F)c1)C1CN(C(c2ccc(Cl)cc2)c2ccc(Cl)cc2)C1 [Drinabant] | identified | – | identified | identified | promoting differentiation significantly higher than 9cis-RA positive control | promote significantly the differentiation into MBP+ oligodendrocytes | promote significantly (p<0.05) the differentiation into MBP+ oligodendrocytes | –
Cc1c(F)cccc1NC(=O)Nc1ccc(Cl)c(S(=O)(=O)[C@H]2CCCNC2)c1O [Danirixin] | – | – | – | – | promoting differentiation significantly higher than 9cis-RA positive control | promote significantly (p<0.05) the differentiation into MBP+ oligodendrocytes | – | –
Cc1ccc(C(=O)Nc2ccc(Oc3cc4cnn(C)c4cc3-c3cn[nH]c3)c(F)c2)c(=O)n1-c1ccc(F)cc1 [Merestinib] | – | – | – | – | promoting differentiation significantly higher than 9cis-RA positive control | promote significantly (p<0.05) the differentiation into MBP+ oligodendrocytes | – | –
CCC/N=C1\S/C(=C\c2ccc(OC[C@H](O)CO)c(Cl)c2)C(=O)N1c1ccccc1C [Ponesimod] | identified | – | – | – | promoting differentiation significantly higher than 9cis-RA positive control | promote significantly (p<0.05) the differentiation into MBP+ oligodendrocytes | – | –
CNC(=O)c1cc(COc2nnc(Nc3ccc(Cl)cc3)c3ccoc23)ccn1 [Telatinib] | – | – | – | – | promoting differentiation significantly higher than 9cis-RA positive control | promote significantly (p<0.05) the differentiation into MBP+ oligodendrocytes | – | > 1.6
CCNC(=O)C1CC(F)(c2ccc(CN3CCCC3)c(F)c2)C1 (stereo not drawn) [PF-03654746] | identified | – | – | – | promoting differentiation significantly higher than 9cis-RA positive control | promote significantly (p<0.05) the differentiation into MBP+ oligodendrocytes | – | –
